Results on 9 molecules are retold here after publication PMC3329467, “Stereoselective Regulations of P-Glycoprotein by Ginsenoside Rh2 Epimers and the Potential Mechanisms From the View of Pharmacokinetics” (PLoS ONE, 2012).

Like-named read-outs stand apart in the source and are kept apart here.

The nature of series [1]: Oral pharmacokinetics of 20(S)-Rh2 and 20(R)-Rh2 in rats (stereoselective LC-MS). The class given is in vivo, rat. The following applies: for Detection in plasma: after oral administration of 20(R)-Rh2, rats; for Cmax / Tmax / MRT last: Sprague-Dawley, rat, po; for MRT last: read-out: MRT 0-t (converted); for Inverted proportion (chiral inversion): after oral administration of a single configuration of Rh2, rats. Here is the method: To investigate the differences of pharmacokinetic characteristics between 20(S)-Rh2 and 20(R)-Rh2, rats were divided into 2 groups with five rats for each group. One received a single dose of 20(S)-Rh2 intragastrically at 25 mg/kg suspended in 0.5% CMC-Na, while the other received 20(R)-Rh2 at the same dosage. Blood samples were collected at 0, 30, 60, 180, 240, 300, 360, 480, 660 and 840 min after oral administration into heparinized tubes. Plasma was obtained by centrifugation at 5000 g for 10 min and stored at −20°C before analysis.
The 20(S)-Rh2, 20(R)-Rh2 and the deglycosylation metabolites 20(S)-Ppd and 20(R)-Ppd were quantified simultaneously by reversed-phase LC-MS. An aliquot of 100 µl sample spiked with digitoxin as internal standard was extracted by 1 ml ethylacetate. The analysis was performed on Finnigan LC-MS system (Thermo Electron, San Jose, CA, USA) with a Lux Cellulose-1 Chiral Column (250×4.6 mm, 5 µm, Phenomenex, USA). The column and autosampler tray temperatures were 40 and 4°C, respectively. The mobile phase was consisted of methanol, acetonitrile and 0.1% formic acid with gradient elution (Table 5). Mass spectrometer was operated in positive ESI mode. MS parameters were as follows: spray voltage, 5.0 kV; sheath gas/auxiliary gas, nitrogen; sheath gas pressure, 35×10^5 Pa; auxiliary gas pressure, 20×10^5 Pa; ion transfer capillary temperature, 300°C. Quantification was performed using SIM mode with [M+Na]^+ peak: m/z 645.4 for Rh2; m/z 483.3 for Ppd; m/z 787.5 for digitoxin (internal standard).
(§1) The pharmacokinetic parameters of digoxin, 20(S)-Rh2 and 20(R)-Rh2 in rats were obtained by noncompartmental analysis using DAS (Drug and Statistics, version 2.1, Chinese Pharmacological Society). The area under the plasma concentration-time curve (AUC) was calculated using the trapezoidal method.

Series [2] has as its target T1, P-gp (Homo sapiens, UniProt P08183).
T1 construct: host or cells: Caco-2 cell monolayers
Nature of the series: P-gp mediated bidirectional transport of digoxin across Caco-2 cell monolayers. The class given is cell-based. On the procedure: The Caco-2 cell transport model was established as described previously. Then, Hank's balanced salt solution (HBSS) containing 20(S)-Rh2, 20(R)-Rh2, 20(S)-Ppd, 20(R)-Ppd or 0.1% DMSO (control) was loaded into both apical and basolateral chambers. After incubation at 37°C for 1 h, 5 µM digoxin was added to either apical or basolateral side to evaluate the transport in absorptive and secretory direction respectively. After incubation for just another 2 h, samples were taken from the receiving chamber for analysis. Verapamil (10 µM) was used as a positive control. Digoxin was determined by LC-MS/MS. All experiments were conducted in triplicate.
For the transport assay, the apparent permeability coefficient (Papp) and efflux ratio (ER) were calculated as reported previously.
(In general: Caco-2 cells form a polarised layer with tight junctions and transporters.)

The test system of series [3] is P-gp. The series can be described thus: Effects of Rh2 epimers on oral pharmacokinetics of P-gp substrate digoxin in rats. The class given is in vivo, rat. On the procedure: The rats were divided into five groups with five each. One group of rats received i.g. single dose of the vehicle (0.5% CMC-Na) serving as the control. Two groups were i.g. administered 20(S)-Rh2 suspended in 0.5% CMC-Na at the doses of 5 mg/kg and 50 mg/kg respectively, while another two groups i.g. administration of 20(R)-Rh2 suspended in 0.5% CMC-Na at the doses of 5 mg/kg and 50 mg/kg respectively. Two hours later, P-gp substrate, digoxin (0.25 mg/kg) was given to the rats by i.g. administration. Blood samples were collected before the P-gp substrate dosing and at 0.08, 0.17, 0.25, 0.5, 1, 2, 3, 6, 8 h post-digoxin-dosing. Plasma was obtained by centrifugation at 5000 g for 10 min and stored at −20°C before analysis. Plasma concentrations of digoxin were determined as described previously.
as §1

Series [4] concerns osteoclastgenesis. To be noted: cited from earlier work.
Series [5] deals with osteoclasts. To be noted: cited from earlier work.
Series [6] concerns Ca^2+, K^+ and Na^+ channel. Details: method as in PMID 15650337, PMID 15979567. The following applies: dose- and voltage-dependent; cited from earlier work.
Series [7] concerns androgen-dependent and –independent prostate cancer cells. Details: method as in PMID 20554003. The following applies: cited from earlier work.
For series [8], the system named is P-glycoprotein (P-gp). To be noted: in vitro and in vivo; cited from earlier work.
Series [9] has as its system human fecal microflora. Details: method as in PMID 11824558. The following applies: cited from earlier work.
On the set-up of series [10]: method as in PMID 19524010. The following applies: 1–9 mg/kg i.g., rats; cited from earlier work.
[11] abbreviates: 1 h preincubation, 5 µM digoxin 2 h, concentration series.
Where [12] appears, read: in vivo, 25 mg/kg, after oral administration of the same epimer, rats.
Setting [13] is: in vivo, 25 mg/kg, plasma analyte after i.g. 20(R)-Rh2 25 mg/kg, rats.
[14] abbreviates: in vivo, 25 mg/kg, plasma analyte after i.g. 20(S)-Rh2 25 mg/kg, rats.
The mark [15] stands for this setting: plasma analyte after i.g. 20(R)-Rh2 25 mg/kg, rats.
Where [16] appears, read: plasma analyte after i.g. 20(S)-Rh2 25 mg/kg, rats.

T1 sequence (P08183 whole entry): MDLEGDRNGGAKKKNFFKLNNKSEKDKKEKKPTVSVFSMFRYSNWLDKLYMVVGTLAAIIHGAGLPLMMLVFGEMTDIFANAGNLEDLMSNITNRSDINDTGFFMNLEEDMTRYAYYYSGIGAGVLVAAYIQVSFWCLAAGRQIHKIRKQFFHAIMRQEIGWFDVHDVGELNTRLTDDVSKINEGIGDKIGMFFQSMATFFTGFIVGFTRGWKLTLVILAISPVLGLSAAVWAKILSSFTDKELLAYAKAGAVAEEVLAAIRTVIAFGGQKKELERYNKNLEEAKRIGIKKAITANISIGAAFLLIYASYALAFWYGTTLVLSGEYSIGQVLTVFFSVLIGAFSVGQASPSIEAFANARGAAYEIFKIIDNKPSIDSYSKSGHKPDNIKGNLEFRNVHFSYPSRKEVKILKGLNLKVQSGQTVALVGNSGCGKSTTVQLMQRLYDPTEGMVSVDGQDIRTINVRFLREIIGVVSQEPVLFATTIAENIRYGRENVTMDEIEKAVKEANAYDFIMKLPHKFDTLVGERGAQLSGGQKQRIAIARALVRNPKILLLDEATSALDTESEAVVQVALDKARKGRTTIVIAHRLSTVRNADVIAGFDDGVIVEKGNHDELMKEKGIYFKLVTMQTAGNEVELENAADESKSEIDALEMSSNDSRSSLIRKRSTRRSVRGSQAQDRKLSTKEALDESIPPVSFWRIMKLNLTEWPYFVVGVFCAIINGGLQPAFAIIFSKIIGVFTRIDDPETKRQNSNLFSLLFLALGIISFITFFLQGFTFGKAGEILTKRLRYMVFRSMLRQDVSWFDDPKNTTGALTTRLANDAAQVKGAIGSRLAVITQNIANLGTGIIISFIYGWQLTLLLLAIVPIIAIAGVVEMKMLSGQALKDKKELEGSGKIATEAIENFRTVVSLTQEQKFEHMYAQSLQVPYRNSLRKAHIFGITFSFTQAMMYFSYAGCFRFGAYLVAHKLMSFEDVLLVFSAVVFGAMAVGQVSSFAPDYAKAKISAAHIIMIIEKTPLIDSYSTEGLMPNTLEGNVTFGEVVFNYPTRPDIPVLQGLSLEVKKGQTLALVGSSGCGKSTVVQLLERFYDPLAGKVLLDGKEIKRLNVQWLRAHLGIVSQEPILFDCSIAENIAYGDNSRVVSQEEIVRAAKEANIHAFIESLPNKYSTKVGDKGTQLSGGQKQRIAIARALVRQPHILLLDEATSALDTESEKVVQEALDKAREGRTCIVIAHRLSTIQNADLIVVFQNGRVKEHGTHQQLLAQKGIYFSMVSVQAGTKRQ

Regarding `CC(C)=CCC[C@@](C)(O)[C@H]1CC[C@]2(C)[C@@H]1[C@H](O)C[C@@H]1[C@@]3(C)CC[C@H](O)C(C)(C)[C@@H]3CC[C@]12C` [20(R)-Ppd, 20(R)-protopanaxadiol], the Detection in plasma entry in series [1] is recorded as “not detected”. The “Effect on efflux ratio of digoxin across Caco-2 cell monolayers” value (“Effect on efflux ratio” for short) in series [2] (setting [11]) is listed as “lowered the efflux ratio of digoxin across Caco-2 cell monolayers concentration-dependently”.

Broadly, the Tmax is the time from dosing to the highest level. In the case of `CC(C)=CCC[C@@](C)(O)[C@H]1CC[C@]2(C)[C@@H]1[C@H](O)C[C@@H]1[C@@]3(C)CC[C@H](O[C@@H]4O[C@H](CO)[C@@H](O)[C@H](O)[C@H]4O)C(C)(C)[C@@H]3CC[C@]12C` [20(R)-Rh2, 20(R)-ginsenoside Rh2], in series [3] (5 mg/kg i.g. prior to i.g. digoxin), the “Effect on AUC and Cmax of digoxin” value is “significantly enhanced”. Moreover, the “Effect on absorption of digoxin compared with control group” value in series [3] (50 mg/kg i.g. prior to i.g. digoxin) is recorded as “not changed significantly”. Moreover, the Cmax in [1] (setting [12]) was at most 50 nM; in series [1] (setting [13]) it was 29 ± 5 ng/mL; in [1] (setting [14]), 17 ± 2 ng/mL. Moreover, the Tmax in series [1] (setting [13]) was 4.75 h; in series [1] (setting [14]), 2.1 h. The figures for the MRT last in series [1] (setting [13]) and in series [1] (setting [14]) were 4.65 h and 2.38 h, respectively. In addition, the “Inverted proportion (chiral inversion)” value in [1] is around 10%. The entries for the “AUC 0-t” value in series [1] (setting [15]) and in series [1] (setting [16]) were 13204 ± 2322 µg·min/L and 8648 ± 1871 µg·min/L, respectively. The “Effect on efflux ratio” value in series [2] (1 µM, 5 µM digoxin) is “significantly lowered the efflux ratio of digoxin”; in series [2] (elevated concentrations, 5 µM digoxin), “the efflux ratio of digoxin were restored”. In [4], the Osteoclastgenesis inhibition result is recorded as “selective osteoclastgenesis inhibitor”. Besides, in series [5], the Cytotoxicity in osteoclasts entry was “without any cytotoxicity”.

As for `CC(C)=CCC[C@](C)(O)[C@H]1CC[C@]2(C)[C@@H]1[C@H](O)C[C@@H]1[C@@]3(C)CC[C@H](O[C@@H]4O[C@H](CO)[C@@H](O)[C@H](O)[C@H]4O[C@@H]4O[C@H](CO)[C@@H](O)[C@H](O)[C@H]4O)C(C)(C)[C@@H]3CC[C@]12C` [20(R)-ginsenoside Rg3], the “Inhibition of Ca^2+, K^+ and Na^+ channel currents” value in series [6] is given as “not”.

As for `CC(C)=CCC[C@](C)(O)[C@H]1CC[C@]2(C)[C@@H]1[C@H](O)C[C@@H]1[C@@]3(C)CC[C@H](O)C(C)(C)[C@@H]3CC[C@]12C` [20(S)-Ppd, 20(S)-protopanaxadiol], in series [1] (setting [16]), the Cmax turned out to be 85 ± 7 ng/mL, the Tmax was 8.67 h, the MRT last is 9.05 h and the “AUC 0-t” value turned out to be 35129 ± 2261 µg·min/L. Besides, the “Effect on efflux ratio” value in [2] (setting [11]) is “lowered the efflux ratio of digoxin across Caco-2 cell monolayers concentration-dependently”.

As for `CC(C)=CCC[C@](C)(O)[C@H]1CC[C@]2(C)[C@@H]1[C@H](O)C[C@@H]1[C@@]3(C)CC[C@H](O[C@@H]4O[C@H](CO)[C@@H](O)[C@H](O)[C@H]4O)C(C)(C)[C@@H]3CC[C@]12C` [20(S)-Rh2, 20(S)-ginsenoside Rh2], the Cmax in series [1] (setting [12]) is around 1000 nM; in [1] (setting [13]), 5 ± 1 ng/mL; in [1] (setting [14]), 572 ± 162 ng/mL. For the same molecule, the Tmax in [1] (setting [13]) is 2.33 h; in [1] (setting [14]) it was 3.45 h. Further, the MRT last was 2.2 h in series [1] (setting [13]) and 3.35 h in series [1] (setting [14]). Further, in series [1], the “Inverted proportion (chiral inversion)” value is around 10%. Also, the “AUC 0-t” value in series [1] (setting [15]) came to 1193 ± 230 µg·min/L; in [1] (setting [16]) it was 149888 ± 40725 µg·min/L. In series [1] (same oral dosage, rats), the “AUC higher than that of 20(R)-Rh2” value amounted to 10 fold. For the same molecule, in series [2] (setting [11]), the “Effect on efflux ratio” value is “decreased the efflux ratio of digoxin crossing Caco-2 cell monolayers in a concentration-dependent manner”. Further, the “Inhibition of proliferation of prostate cancer cells” value in series [7] is “inhibited the proliferation”. For the same molecule, the Osteoclastgenesis inhibition entry in series [4] was “weak osteoclastgenesis inhibition”. In addition, the Cytotoxicity in osteoclasts result in series [5] is listed as “strong cytotoxicity”. Further, the P-gp inhibition entry in series [8] is “effective P-gp inhibitor both in vitro and in vivo”.

With `CC(C)=CCC[C@](C)(O)[C@H]1CC[C@]2(C)[C@@H]1[C@H](O)C[C@@H]1[C@@]3(C)CC[C@H](O[C@@H]4O[C@H](CO)[C@@H](O)[C@H](O)[C@H]4O[C@@H]4O[C@H](CO)[C@@H](O)[C@H](O)[C@H]4O)C(C)(C)[C@@H]3CC[C@]12C` [20(S)-ginsenoside Rg3], the “Amount transformed to 20(S)-ginsenoside Rh2, higher than 20(R)-Rg3 to 20(R)-Rh2” value in series [9] is 19 fold. The “Inhibition of Ca^2+, K^+ and Na^+ channel currents” value in series [6] is “inhibited”.

Consider `C[C@H]1O[C@@H](O[C@H]2[C@@H](O)C[C@H](O[C@H]3[C@@H](O)C[C@H](O[C@H]4CC[C@@]5(C)[C@H](CC[C@@H]6[C@@H]5C[C@@H](O)[C@]5(C)[C@@H](C7=CC(=O)OC7)CC[C@]65O)C4)O[C@@H]3C)O[C@@H]2C)C[C@H](O)[C@@H]1O` [Digoxin], for which, in series [3] (Sprague-Dawley (SD), rat, plasma, po, digoxin 0.25 mg/kg i.g., control (no Rh2)), the Cmax amounted to 9.9 ± 2.6 nM. For the same molecule, the AUC 0-t in [3] (Sprague-Dawley (SD), rat, plasma, po, digoxin 0.25 mg/kg i.g., control (no Rh2), read-out: AUC 0–12 of digoxin) is 0.0154 ± 0.0029 µM·h. In series [3] (Sprague-Dawley (SD), rat, plasma, po, digoxin 0.25 mg/kg i.g., control (no Rh2), read-out: MRT0–12 of digoxin), the MRT last worked out at 1.7 ± 0.6 h. Also, in [3] (Sprague-Dawley (SD), rat, plasma, po, digoxin 0.25 mg/kg i.g., control (no Rh2), read-out: t1/2 of digoxin (converted)), the half-life is 1.2 ± 0.4 h.

Turning to `CC(C)=CCC[C@@](C)(O)[C@H]1CC[C@]2(C)[C@@H]1[C@H](O)C[C@@H]1[C@@]3(C)CC[C@H](O)C(C)(C)[C@@H]3CC[C@]12C` [Ppd, protopanaxadiol], the Detection in plasma entry in series [1] was “no Ppd was found”.

In the case of `CC(C)=CCC[C@](C)(O)[C@H]1CC[C@]2(C)[C@@H]1[C@H](O)C[C@@H]1[C@@]3(C)CC[C@H](O[C@@H]4O[C@H](CO)[C@@H](O)[C@H](O)[C@H]4O)C(C)(C)[C@@H]3CC[C@]12C` [Rh2, ginsenoside Rh2], the Absolute bioavailability in [10] is on record as 4.0–6.4%.
